Three compounds from ChEMBL document CHEMBL5724806, “Unraveling interindividual differences and functional consequences of gut microbial metabolism of immunosuppressants” (2024) can be followed below.

Holding throughout (assay type): ADME
Data set [1] is described as follows: The drug is tested on Streptococcus mitis strain: DSM12643 for biotransformation under anaerobic condition. The drug concentrations were measured over 6 timepoints collected between 0 and 12 hours of incubation by liquid-chromatography-coupled mass spectrometry (LC–MS). More on the design: dose 5 uM, timepoint 0, 1.5, 3, 6, 9, 12 hours. The note with it: 5 µM.

Data set [2] is described as follows: The drug is tested on Lactobacillus ruminis strain: ATCC25644 for biotransformation under microaerobic condition. The drug concentrations were measured over 6 timepoints collected between 0 and 12 hours of incubation by liquid-chromatography-coupled mass spectrometry (LC–MS). The note with it: ligilactobacillus ruminis, 5 µM. Also noted: dose 5 uM, timepoint 0, 1.5, 3, 6, 9, 12 hours.

Data set [3] can be described thus: The drug is tested on Bacteroides uniformis strain: DSM6597 for biotransformation under anaerobic condition. The drug concentrations were measured over 6 timepoints collected between 0 and 12 hours of incubation by liquid-chromatography-coupled mass spectrometry (LC–MS). Also noted: dose 5 uM, timepoint 0, 1.5, 3, 6, 9, 12 hours. The note with it: 5 µM.
Data set [4] can be described thus: The drug is tested on Bacteroides xylanisolvens strain: HM 722 for biotransformation under anaerobic condition. The drug concentrations were measured over 6 timepoints collected between 0 and 12 hours of incubation by liquid-chromatography-coupled mass spectrometry (LC–MS). Also noted: dose 5 uM, timepoint 0, 1.5, 3, 6, 9, 12 hours. The note with it: 5 µM.
The nature of data set [5]: The drug is tested on Eubacterium hallii strain: DSM3353 for biotransformation under anaerobic condition. The drug concentrations were measured over 6 timepoints collected between 0 and 12 hours of incubation by liquid-chromatography-coupled mass spectrometry (LC–MS). Also noted: dose 5 uM, timepoint 0, 1.5, 3, 6, 9, 12 hours. The note with it: anaerobutyricum hallii, 5 µM.

The nature of data set [6]: The drug is tested on Alloscardovia omnicolens strain: DSM21503 for biotransformation under anaerobic condition. The drug concentrations were measured over 6 timepoints collected between 0 and 12 hours of incubation by liquid-chromatography-coupled mass spectrometry (LC–MS). More on the design: dose 5 uM, timepoint 0, 1.5, 3, 6, 9, 12 hours. The note with it: 5 µM.
Data set [7] is described as follows: The drug is tested on the gut metagenome community of T-01 with ENA study accession number: PRJEB31790 for biotransformation under anaerobic condition. The drug concentrations were measured over 7 timepoints collected between 0 and 12 hours of incubation by liquid-chromatography-coupled mass spectrometry (LC–MS). More on the design: dose 5 uM, timepoint 0, 0.75, 1.5, 3, 6, 9, 12 hours. The note with it: 5 µM.

Data set [8] is described as follows: The drug is tested on the gut metagenome community of A-10 with ENA study accession number: PRJEB31790 for biotransformation under anaerobic condition. The drug concentrations were measured over 7 timepoints collected between 0 and 12 hours of incubation by liquid-chromatography-coupled mass spectrometry (LC–MS). The note with it: 5 µM. Also noted: dose 5 uM, timepoint 0, 0.75, 1.5, 3, 6, 9, 12 hours.

Data set [9] is described as follows: The drug is tested on the gut metagenome community of A-03 with ENA study accession number: PRJEB31790 for biotransformation under microaerobic condition. The drug concentrations were measured over 7 timepoints collected between 0 and 12 hours of incubation by liquid-chromatography-coupled mass spectrometry (LC–MS). Also noted: dose 5 uM, timepoint 0, 0.75, 1.5, 3, 6, 9, 12 hours. The note with it: 5 µM.

Data set [10] in a line: The drug is tested on Bacteroides ovatus strain: ATCC 8483 for biotransformation under anaerobic condition. The drug concentrations were measured over 6 timepoints collected between 0 and 12 hours of incubation by liquid-chromatography-coupled mass spectrometry (LC–MS). More on the design: dose 5 uM, timepoint 0, 1.5, 3, 6, 9, 12 hours. The note with it: 5 µM.
A short description of data set [11]: The drug is tested on the gut metagenome community of A-04 with ENA study accession number: PRJEB31790 for biotransformation under microaerobic condition. The drug concentrations were measured over 7 timepoints collected between 0 and 12 hours of incubation by liquid-chromatography-coupled mass spectrometry (LC–MS). Also noted: dose 5 uM, timepoint 0, 0.75, 1.5, 3, 6, 9, 12 hours. The note with it: 5 µM.

The nature of data set [12]: The drug is tested on Faecalibacterium prausnitzii strain: DSM17677 for biotransformation under anaerobic condition. The drug concentrations were measured over 6 timepoints collected between 0 and 12 hours of incubation by liquid-chromatography-coupled mass spectrometry (LC–MS). More on the design: dose 5 uM, timepoint 0, 1.5, 3, 6, 9, 12 hours. The note with it: faecalibacterium duncaniae, 5 µM.

Data set [13] can be described thus: The drug is tested on Roseburia intestinalis strain: DSM14610 for biotransformation under anaerobic condition. The drug concentrations were measured over 6 timepoints collected between 0 and 12 hours of incubation by liquid-chromatography-coupled mass spectrometry (LC–MS). The note with it: 5 µM. More on the design: dose 5 uM, timepoint 0, 1.5, 3, 6, 9, 12 hours.

A short description of data set [14]: The drug is tested on the gut metagenome community of A-08 with ENA study accession number: PRJEB31790 for biotransformation under microaerobic condition. The drug concentrations were measured over 7 timepoints collected between 0 and 12 hours of incubation by liquid-chromatography-coupled mass spectrometry (LC–MS). Also noted: dose 5 uM, timepoint 0, 0.75, 1.5, 3, 6, 9, 12 hours. The note with it: 5 µM.

Data set [15] is described as follows: The drug is tested on Lactobacillus ruminis strain: ATCC25644 for biotransformation under anaerobic condition. The drug concentrations were measured over 6 timepoints collected between 0 and 12 hours of incubation by liquid-chromatography-coupled mass spectrometry (LC–MS). Also noted: dose 5 uM, timepoint 0, 1.5, 3, 6, 9, 12 hours. The note with it: ligilactobacillus ruminis, 5 µM.

The nature of data set [16]: The drug is tested on the gut metagenome community of A-01 with ENA study accession number: PRJEB31790 for biotransformation under anaerobic condition. The drug concentrations were measured over 7 timepoints collected between 0 and 12 hours of incubation by liquid-chromatography-coupled mass spectrometry (LC–MS). Also noted: dose 5 uM, timepoint 0, 0.75, 1.5, 3, 6, 9, 12 hours. The note with it: 5 µM.

Data set [17] is described as follows: The drug is tested on the gut metagenome community of P-01 with ENA study accession number: PRJEB31790 for biotransformation under microaerobic condition. The drug concentrations were measured over 7 timepoints collected between 0 and 12 hours of incubation by liquid-chromatography-coupled mass spectrometry (LC–MS). More on the design: dose 5 uM, timepoint 0, 0.75, 1.5, 3, 6, 9, 12 hours. The note with it: 5 µM.

Data set [18] in a line: The drug is tested on the gut metagenome community of A-09 with ENA study accession number: PRJEB31790 for biotransformation under anaerobic condition. The drug concentrations were measured over 7 timepoints collected between 0 and 12 hours of incubation by liquid-chromatography-coupled mass spectrometry (LC–MS). More on the design: dose 5 uM, timepoint 0, 0.75, 1.5, 3, 6, 9, 12 hours. The note with it: 5 µM.

The nature of data set [19]: The drug is tested on the gut metagenome community of A-03 with ENA study accession number: PRJEB31790 for biotransformation under anaerobic condition. The drug concentrations were measured over 7 timepoints collected between 0 and 12 hours of incubation by liquid-chromatography-coupled mass spectrometry (LC–MS). More on the design: dose 5 uM, timepoint 0, 0.75, 1.5, 3, 6, 9, 12 hours. The note with it: 5 µM.

A short description of data set [20]: The drug is tested on Actinomyces naeslundi strain: DSM43013 for biotransformation under anaerobic condition. The drug concentrations were measured over 6 timepoints collected between 0 and 12 hours of incubation by liquid-chromatography-coupled mass spectrometry (LC–MS). Also noted: dose 5 uM, timepoint 0, 1.5, 3, 6, 9, 12 hours. The note with it: actinomyces naeslundii, 5 µM.

Data set [21] in a line: The drug is tested on Bacteroides vulgatus strain: DSM1447 for biotransformation under anaerobic condition. The drug concentrations were measured over 6 timepoints collected between 0 and 12 hours of incubation by liquid-chromatography-coupled mass spectrometry (LC–MS). Also noted: dose 5 uM, timepoint 0, 1.5, 3, 6, 9, 12 hours. The note with it: phocaeicola vulgatus, 5 µM.

Data set [22] in a line: The drug is tested on the gut metagenome community of T-05 with ENA study accession number: PRJEB31790 for biotransformation under microaerobic condition. The drug concentrations were measured over 7 timepoints collected between 0 and 12 hours of incubation by liquid-chromatography-coupled mass spectrometry (LC–MS). More on the design: dose 5 uM, timepoint 0, 0.75, 1.5, 3, 6, 9, 12 hours. The note with it: 5 µM.

Data set [23] can be described thus: The drug is tested on Akkermansia muciniphila strain: DSM22959 for biotransformation under anaerobic condition. The drug concentrations were measured over 6 timepoints collected between 0 and 12 hours of incubation by liquid-chromatography-coupled mass spectrometry (LC–MS). The note with it: 5 µM. More on the design: dose 5 uM, timepoint 0, 1.5, 3, 6, 9, 12 hours.

Data set [24] is described as follows: The drug is tested on the gut metagenome community of T-04 with ENA study accession number: PRJEB31790 for biotransformation under microaerobic condition. The drug concentrations were measured over 7 timepoints collected between 0 and 12 hours of incubation by liquid-chromatography-coupled mass spectrometry (LC–MS). Also noted: dose 5 uM, timepoint 0, 0.75, 1.5, 3, 6, 9, 12 hours. The note with it: 5 µM.

For `C[C@H]1C[C@H]2[C@@H]3CCC4=CC(=O)C=C[C@]4(C)[C@@]3(F)[C@@H](O)C[C@]2(C)[C@@]1(O)C(=O)CO` [BETAMETHASONE], the “Bacterial Biotransformation” value in [1], in data set [2], in data set [3], in [4], in data set [5] and in data set [6] was “Compound NOT metabolized” in each case. In addition, the “Bacterial Biotransformation” value is “Compound NOT metabolized” in data set [7]; “Compound NOT metabolized” in [8]; “Compound NOT metabolized” in data set [9]; “Compound NOT metabolized” in [10]; “Compound metabolized” in data set [11]; “Compound NOT metabolized” in data set [12]. Moreover, the “Bacterial Biotransformation” value in data set [13] was “Compound NOT metabolized”; in [14], “Compound metabolized”; in data set [15], “Compound NOT metabolized”; in [16], “Compound NOT metabolized”; in data set [17], “Compound NOT metabolized”; in [18], “Compound metabolized”. Besides, the “Bacterial Biotransformation” value is “Compound metabolized” in data set [19]; “Compound NOT metabolized” in data set [20]; “Compound NOT metabolized” in data set [21]; “Compound NOT metabolized” in [22]; “Compound NOT metabolized” in data set [23]; “Compound NOT metabolized” in data set [24].

Regarding `CCCC1O[C@@H]2C[C@H]3[C@@H]4CCC5=CC(=O)C=C[C@]5(C)[C@H]4[C@@H](O)C[C@]3(C)[C@]2(C(=O)CO)O1` (some centres not stated) [BUDESONIDE], the “Bacterial Biotransformation” value in data set [1], in [2], in data set [3], in data set [4], in data set [5] and in data set [6] was “Compound NOT metabolized” throughout. Also, the “Bacterial Biotransformation” value in data set [7] is “Compound metabolized”; in data set [8], “Compound NOT metabolized”; in data set [9], “Compound metabolized”; in [10], “Compound NOT metabolized”; in data set [11], “Compound metabolized”; in data set [12], “Compound NOT metabolized”. The “Bacterial Biotransformation” value in [13] is “Compound NOT metabolized”; in data set [14], “Compound metabolized”; in data set [15] it was “Compound NOT metabolized”; in data set [16], “Compound NOT metabolized”; in data set [17], “Compound NOT metabolized”; in [18], “Compound metabolized”. The “Bacterial Biotransformation” value in data set [19] is “Compound NOT metabolized”; in data set [20] it was “Compound NOT metabolized”; in [21], “Compound NOT metabolized”; in [22], “Compound NOT metabolized”; in [23], “Compound NOT metabolized”; in data set [24] it was “Compound metabolized”.

Turning to `C[C@]12CCC(=O)C=C1CC[C@@H]1[C@@H]2C(=O)C[C@@]2(C)[C@H]1CC[C@]2(O)C(=O)CO` [CORTISONE], the “Bacterial Biotransformation” value in data set [1], in [2], in data set [3], in data set [4], in data set [5] and in data set [6] was “Compound NOT metabolized” throughout. In addition, the “Bacterial Biotransformation” value is “Compound metabolized” in data set [7]; “Compound metabolized” in data set [8]; “Compound metabolized” in [9]; “Compound NOT metabolized” in [10]; “Compound metabolized” in [11]; “Compound NOT metabolized” in data set [12]. Also, the “Bacterial Biotransformation” value in data set [13] was “Compound NOT metabolized”; in data set [14], “Compound metabolized”; in data set [15] it was “Compound NOT metabolized”; in data set [16] it was “Compound metabolized”; in data set [17], “Compound metabolized”; in data set [18] it was “Compound metabolized”. Moreover, the “Bacterial Biotransformation” value in [19] is listed as “Compound metabolized”; in [20], “Compound NOT metabolized”; in data set [21], “Compound NOT metabolized”; in [22], “Compound metabolized”; in data set [23] it was “Compound NOT metabolized”; in [24] it was “Compound NOT metabolized”.
